Laboratory results reported in PMC2694132 (Cancer research, 2009).

Key:
UGT1A3 = target: T1, UGT1A3 (Homo sapiens, UniProt P35503); test: SAHA glucuronidation, UGT1A3-overexpressing HEK293 cell homogenate; format: in vitro ADME
T1 sequence (P35503 29-534): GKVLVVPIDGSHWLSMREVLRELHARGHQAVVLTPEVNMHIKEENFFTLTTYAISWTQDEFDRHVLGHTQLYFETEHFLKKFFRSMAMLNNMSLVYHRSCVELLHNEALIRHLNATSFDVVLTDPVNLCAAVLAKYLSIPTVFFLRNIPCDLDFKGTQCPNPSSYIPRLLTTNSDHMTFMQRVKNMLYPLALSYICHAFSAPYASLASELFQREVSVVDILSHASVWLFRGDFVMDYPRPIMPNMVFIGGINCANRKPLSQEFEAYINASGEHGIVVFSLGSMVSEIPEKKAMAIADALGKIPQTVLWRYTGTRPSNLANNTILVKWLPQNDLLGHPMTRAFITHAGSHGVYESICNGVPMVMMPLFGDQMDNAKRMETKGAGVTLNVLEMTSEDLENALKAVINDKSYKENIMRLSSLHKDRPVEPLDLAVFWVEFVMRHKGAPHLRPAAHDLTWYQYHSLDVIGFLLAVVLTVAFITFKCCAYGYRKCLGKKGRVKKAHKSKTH

UGT2B17 = target: T2, UGT2B17 (Homo sapiens, UniProt O75795); test: SAHA glucuronidation, UGT2B17-overexpressing HEK293 cell homogenate; format: in vitro ADME
T2 sequence (O75795 24-530): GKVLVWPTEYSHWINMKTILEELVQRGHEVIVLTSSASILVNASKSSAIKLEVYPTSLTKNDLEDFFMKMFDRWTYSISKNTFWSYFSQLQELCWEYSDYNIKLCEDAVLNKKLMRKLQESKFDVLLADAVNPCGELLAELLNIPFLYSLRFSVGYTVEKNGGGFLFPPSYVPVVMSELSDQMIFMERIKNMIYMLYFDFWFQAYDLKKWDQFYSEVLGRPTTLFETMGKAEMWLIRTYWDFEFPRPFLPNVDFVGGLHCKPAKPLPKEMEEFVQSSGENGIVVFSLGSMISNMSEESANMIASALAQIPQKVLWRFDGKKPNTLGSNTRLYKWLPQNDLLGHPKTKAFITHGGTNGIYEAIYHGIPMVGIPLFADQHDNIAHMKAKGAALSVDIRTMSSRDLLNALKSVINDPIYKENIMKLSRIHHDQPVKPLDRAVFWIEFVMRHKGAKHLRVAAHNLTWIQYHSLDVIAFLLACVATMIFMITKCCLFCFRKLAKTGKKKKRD

UGT1A10 = target: T3, UGT1A10 (Homo sapiens, UniProt Q9HAW8); test: SAHA glucuronidation, wild-type UGT1A10; format: in vitro ADME
T3 sequence (Q9HAW8 26-530): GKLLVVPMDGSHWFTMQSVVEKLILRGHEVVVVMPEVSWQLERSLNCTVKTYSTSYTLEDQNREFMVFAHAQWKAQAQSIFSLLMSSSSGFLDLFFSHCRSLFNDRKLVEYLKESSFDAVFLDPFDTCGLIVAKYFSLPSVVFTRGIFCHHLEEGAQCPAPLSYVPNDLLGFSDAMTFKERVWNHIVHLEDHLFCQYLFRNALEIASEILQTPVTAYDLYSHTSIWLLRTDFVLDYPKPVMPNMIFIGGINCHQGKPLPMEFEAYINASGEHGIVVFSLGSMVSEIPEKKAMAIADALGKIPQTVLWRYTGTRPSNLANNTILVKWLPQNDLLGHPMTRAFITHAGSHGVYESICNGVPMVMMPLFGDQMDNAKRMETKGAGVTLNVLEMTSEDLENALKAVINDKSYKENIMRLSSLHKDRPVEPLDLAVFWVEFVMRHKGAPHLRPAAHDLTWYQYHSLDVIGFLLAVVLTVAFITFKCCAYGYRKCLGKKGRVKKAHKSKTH

[1] = SAHA glucuronidation in human colon homogenate; format: in vitro ADME; settings: 200 μg protein
UGT2B11 = target: T4, UGT2B11 (Homo sapiens, UniProt O75310); test: SAHA glucuronidation screen, UGT2B11-overexpressing cell homogenate; format: in vitro ADME; settings: 400 μg UGT-overexpressing cell homogenate, 1-h incubation
T4 sequence (O75310 22-529): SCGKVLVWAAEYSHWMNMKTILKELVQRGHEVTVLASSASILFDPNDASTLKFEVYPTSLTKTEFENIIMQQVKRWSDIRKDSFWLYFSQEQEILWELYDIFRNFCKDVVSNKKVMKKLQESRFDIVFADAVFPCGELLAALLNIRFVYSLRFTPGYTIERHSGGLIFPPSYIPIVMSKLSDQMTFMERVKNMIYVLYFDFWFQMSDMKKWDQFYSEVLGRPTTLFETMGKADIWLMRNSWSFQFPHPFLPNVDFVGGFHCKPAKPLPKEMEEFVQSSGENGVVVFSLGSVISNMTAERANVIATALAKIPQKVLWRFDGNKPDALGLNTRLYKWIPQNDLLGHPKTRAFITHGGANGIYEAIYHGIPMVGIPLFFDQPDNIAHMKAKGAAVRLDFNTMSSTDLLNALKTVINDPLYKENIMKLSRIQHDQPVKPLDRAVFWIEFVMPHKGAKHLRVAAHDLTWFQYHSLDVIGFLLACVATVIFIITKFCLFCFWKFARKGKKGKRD

in vitro = settings: human, pH 7.5
[2] = target: T5, UGT1A7*2 [UGT1A7p.(Asn129Lys)+(Arg131Lys)] (Homo sapiens, UniProt Q9HAW7, N129K/R131K); test: SAHA glucuronidation, UGT1A7*2 variant cell homogenate; format: in vitro ADME
T5 sequence (Q9HAW7 26-530 N129K/R131K): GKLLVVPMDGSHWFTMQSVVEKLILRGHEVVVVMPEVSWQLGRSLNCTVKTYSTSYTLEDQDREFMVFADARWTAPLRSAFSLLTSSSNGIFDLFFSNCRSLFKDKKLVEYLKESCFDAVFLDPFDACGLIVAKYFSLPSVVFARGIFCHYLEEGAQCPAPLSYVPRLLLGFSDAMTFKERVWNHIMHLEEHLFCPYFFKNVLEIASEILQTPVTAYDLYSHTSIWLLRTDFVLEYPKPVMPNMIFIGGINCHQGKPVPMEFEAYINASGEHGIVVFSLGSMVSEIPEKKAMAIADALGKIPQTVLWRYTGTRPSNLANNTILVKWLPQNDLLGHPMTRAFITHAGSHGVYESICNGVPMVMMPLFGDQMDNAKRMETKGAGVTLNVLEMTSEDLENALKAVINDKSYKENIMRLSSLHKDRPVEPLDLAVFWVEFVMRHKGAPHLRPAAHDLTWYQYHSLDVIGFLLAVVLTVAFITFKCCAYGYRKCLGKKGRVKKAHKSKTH

[3] = 400 μg UGT-overexpressing cell homogenate, 1-h incubation

With O=C(CCCCCCC(=O)Nc1ccccc1)NO [SAHA, Suberoylanilide hydroxamic acid] the “glucuronidation against SAHA (screen)” value (UGT1A3; [3]) was “high levels of glucuronidation”, the Km at 1 h (UGT1A3; human, UGT1A3-overexpressing HEK293 cell homogenate, pH 7.5) was 3400 ± 800 µM and the “glucuronidation against SAHA (screen)” value (UGT2B17; [3]) was “high levels of glucuronidation”. The “apparent KM of UGT2B17 lower than that of UGT1A3” value (UGT2B17; against SAHA) was 11 fold, the “apparent KM of UGT2B17 lower than that of UGT1A9” value (UGT2B17; against SAHA) was 5 fold and the “higher level of glucuronidation activity (Vmax/KM) of UGT2B17 compared with UGT1A3” value (UGT2B17; against SAHA) was 9.4 fold. The “higher level of glucuronidation activity (Vmax/KM) of UGT2B17 compared with UGT1A9” value (UGT2B17; against SAHA) was 2.3 fold, the Km at 1 h (UGT2B17; human, UGT2B17-overexpressing HEK293 cell homogenate, pH 7.5) was 300 ± 100 µM and the “glucuronidation against SAHA (screen)” value (UGT1A10; [3]) was “high levels of glucuronidation”. The “KM of UGT1A10 higher than that observed for UGT2B17” value (UGT1A10; against SAHA) was 3 fold, the Km at 1 h (UGT1A10; human, pH 7.5) was 1000 ± 100 µM and the “glucuronidation activity against SAHA” value [1] was “significant levels of glucuronidation activity”. The “glucuronidation activity against SAHA (screen)” value (UGT2B11) was “No detectable glucuronidation activity”, the Km (in vitro; human liver microsomes from UGT2B17 (*1/*1) subjects) was 1200 µM and the Km (in vitro; human liver microsomes from UGT2B17 (*2/*2) subjects) was 2100 µM. For the same compound, the “difference in glucuronidation activity against SAHA versus wild-type UGT1A7” value ([2]; UGT1A7 variants) was “No significant difference” and the Km at 1 h ([2]; human, pH 7.5) was 2500 ± 300 µM.
